From patent publication US20160220689A1, “MACROMOLECULES OF DENDRIMER-PLATINUM CONJUGATES” (priority 2013, published 2016)

Key:
[1] = cited from earlier work
FADU (head and neck) = test: Sulforhodamine B (SRB) cell growth inhibition assay; details: 72 hours, based on equivalent platinum loading, standard drugs on total molecular weight
Procedure: (§1) Cell growth inhibition was determined using the Sulforhodamine B (SRB) assay (Voigt W., “Sulforhodamine B assay and chemosensitivity” Methods Mol. Med., 2005, 110, 39-48) against various cancer cell lines after 72 hours.
(§2) All solutions were prepared in saline and were stored at −20° C. All values were based on equivalent platinum loading except standard drugs which were calculated on total molecular weight. The results are shown in Table 1 in the micromolar range.

OE21 (head and neck) = test: as above; details: 72 hours, based on equivalent platinum loading, standard drugs on total molecular weight
Procedure: as §1, §2

SW620 (colon) = test: as above; details: 72 hours, based on equivalent platinum loading, standard drugs on total molecular weight
Procedure: as §1, §2

LoVo (colon) = test: as above; details: 72 hours, based on equivalent platinum loading, standard drugs on total molecular weight
Procedure: as §1, §2

2008 (ovarian) = test: as above; details: 72 hours, based on equivalent platinum loading, standard drugs on total molecular weight
Procedure: as §1, §2

SW620 cells = test: Xenograft model efficacy study; details: IV days 1, 8, 15, Oxaliplatin 5, Compound 1 8.5, Compound 5 9 mg/kg Pt equivalents
Procedure: Thirteen days later, 50 mice with similar sized tumors (˜110 mm^3) were randomized into 4 groups (n=12). All compounds were dissolved in 5% glucose at the concentration required to achieve administration of 0.1 mL/10 g body eight.

[2] = Maximum tolerated dosage in mice; details: intravenous, once weekly for three weeks (day 1, 8 and 15), female Balb/c mice
Source text: Mice were weighed daily and watched for signs of toxicity. Animals were monitored for up to 10 days following the final drug dose. Any mice exceeding ethical endpoints (>20% body weight loss, poor general health) were immediately sacrificed and observations were noted.

[3] = Toxicity study: blood cell counts in tumor-bearing mice; details: Oxaliplatin 5, Compound 1 8.5, Compound 5 9 mg/kg Pt equivalents IV days 1, 8, 15
Procedure: The mice were randomised into 4 groups of n=5 mice, (mean tumor volume ˜90 mm^3) On day one, animals were eye bled in the morning for baseline cell counts and then drug dosing commenced later that day. Drug dosing was performed on days 1, 8 and 15 at the previously determined maximum tolerated doses. All compounds were dissolved in 5% glucose at the concentration required to allow administration of 0.1 mL/10 g body weight. […] Subsequent eye bleeds were performed on days 7, 14 and 26 (Tables 4 A-D, in each case data represented as mean ratio of counts for each time point relative to that at the baseline).

| Compound | GI50 (FADU (head and neck)) [µM] | GI50 (OE21 (head and neck)) [µM] | GI50 (SW620 (colon)) [µM] | GI50 (LoVo (colon)) [µM] | GI50 (2008 (ovarian)) [µM] | also measured |
| --- | --- | --- | --- | --- | --- | --- |
| N.N.O=C([O-])C1(C(=O)[O-])CCC1.[Pt+2] [Carboplatin, carboplatin, reference compound] | 20 | 3.6 | 33.5 | 23 | 4.9 | patients developing peripheral neurotoxicity ([1]; patients receiving the drug): 4-6% |
| N.N.[Cl][Pt][Cl] [Cisplatin, cisplatin, reference compound] | 2 | 0.4 | 3.6 | 2.8 | 0.5 | patients with tinnitus and hearing loss ([1]; patients treated with the drug): up to 31% |
| BHALys[Lys]32[α-Succ-Gly-Gly-Gly-amino malonic acid-N,O—Pt-1R,2R-(DACH)]32[ε-PEG1100]32 [Compound 4] | 9.5 | 7.4 | 6.7 | 13 | 6.4 | – |
| BHALys[Lys]32[α-Succ-Gly-Gly-Gly-amino malonic acid-O,N—Pt-diammine]32[ε-PEG2200]32 [Compound 3] | > 300 | – | > 300 | > 300 | 69 | – |
| BHALys[Lys]32[α-Succ-Gly-Gly-Gly-amino malonic acid-O,O′—Pt-diammine]32[ε-PEG2200]32 [Compound 2] | 200 | > 30 | > 300 | 170 | 41 | – |
| BHALys[Lys]32[α-Succ-Gly-Gly-Gly-amino malonic acid-Pt-1R,2R-(DACH)]32[ε-PEG2200]32 [Compound 1] | 9 | – | 3.5 | 7.5 | 4.5 | Mean Tumor Volume (SW620 cells; Day 1): 100.47 mm^3; Mean Tumor Volume (SW620 cells; Day 7): 184.55 mm^3; Mean Tumor Volume (SW620 cells; Day 14): 283.02 mm^3; Mean Tumor Volume (SW620 cells; Day 21): 316.90 mm^3 |
| BHALys[Lys]32[α-Succ-Gly-Leu-Phe-Gly-amino malonic acid-N,O—Pt-1R,2R-(DACH)]32[ε-PEG1100]32 [Compound 6] | 12 | 14.5 | 4.2 | 8.1 | 3.9 | – |
| BHALys[Lys]32[α-Succ-Gly-Leu-Phe-Gly-amino malonic acid-N,O—Pt-diammine]32[ε-PEG1100]32 [Compound 7] | 150 | > 30 | 170 | 220 | 36 | – |
| BHALys[Lys]32[α-Succ-Gly-Leu-Phe-Gly-amino malonic acid-Pt-1R,2R-(DACH)]32[ε-PEG2200]32 [Compound 5] | 3 | – | 1.5 | 3 | 2.5 | Mean Tumor Volume (SW620 cells; Day 1): 100.96 mm^3; Mean Tumor Volume (SW620 cells; Day 7): 196.01 mm^3; Mean Tumor Volume (SW620 cells; Day 14): 303.00 mm^3; Mean Tumor Volume (SW620 cells; Day 21): 363.01 mm^3 |
| BHALys[Lys]32[α-Succ-Pro-Val-Gly-Leu-Ile-Gly-amino malonic acid N,O—Pt-diamine]32[ε-PEG1100]32 [Compound 8] | 71 | 26.5 | 63 | 72 | 18 | – |
| BHALys[Lys]32[α-diglycolic acid-5R-oxy-(1R,2R)-diaminocyclohexane-oxalato-Platinum (II)]32[ε-PEG2200]32 [Compound 13] | – | – | – | – | – | Tolerated Dose [2]: >35 mg/Kg Pt equivalents |
| BHALys[Lys]32[α-diglycolic acid-5S-oxy-(1R,2R)-diaminocyclohexane-oxalato-Platinum (II)]32[ε-PEG2200]32 [Compound 14] | – | – | – | – | – | Tolerated Dose [2]: >35 mg/Kg Pt equivalents |
| BHALys[Lys]32[α-thiodiglycolic acid-4-oxy-1,1-cyclohexane dicarboxylic acid —Pt-1R,2R-(DACH)]32[ε-PEG2200]32 [Compound 12] | 8.5 | – | 2.5 | 5 | 6 | Tolerated Dose [2]: >60 mg/Kg Pt equivalents |
| oxaliplatin [reference compound] | 0.9 | 1 | 0.2 | 0.5 | 0.2 | Mean lymphocytes counts (baseline corrected) (SEM) ([3]; Day 1 (baseline)): 1.000 (0.125); Mean lymphocytes counts (baseline corrected) (SEM) ([3]; Day 7): 0.240 (0.130); Mean lymphocytes counts (baseline corrected) (SEM) ([3]; Day 14): 0.302 (0.066); Mean lymphocytes counts (baseline corrected) (SEM) ([3]; Day 26): 0.380 (0.154); Mean Tumor Volume (SW620 cells; Day 1): 100.56 mm^3; Mean Tumor Volume (SW620 cells; Day 7): 203.06 mm^3; Mean Tumor Volume (SW620 cells; Day 14): 340.50 mm^3; Mean Tumor Volume (SW620 cells; Day 21): 501.57 mm^3 |
